Converted amounts (≈) assume the structure as drawn.
Assays:
[1] = biological target: T1, Glucose-dependent insulinotropic receptor (Homo sapiens, UniProt Q8TDV5); assay: Agonist activity at human GPR119 expressed in CHO cells by cAMP assay; format: functional, cell-based
T1 sequence (Q8TDV5 whole entry): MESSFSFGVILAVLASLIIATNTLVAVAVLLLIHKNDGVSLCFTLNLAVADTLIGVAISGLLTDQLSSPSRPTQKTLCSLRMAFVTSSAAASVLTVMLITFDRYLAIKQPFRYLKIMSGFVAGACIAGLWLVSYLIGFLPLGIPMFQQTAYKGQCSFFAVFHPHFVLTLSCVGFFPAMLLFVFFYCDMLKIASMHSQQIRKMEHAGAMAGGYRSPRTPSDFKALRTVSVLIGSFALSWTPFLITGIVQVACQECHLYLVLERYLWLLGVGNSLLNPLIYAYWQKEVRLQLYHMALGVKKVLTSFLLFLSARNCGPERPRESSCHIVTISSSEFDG

[2] = biological target: T2, Glucose-dependent insulinotropic receptor (Homo sapiens) (UniProt Q8TDV5); assay: Agonist activity at human GPR119 by cAMP assay relative to control; format: functional; parameters: concentration or dose not given beside the values
T2 sequence (whole entry): T1 sequence (Q8TDV5 whole entry)

[3] = biological target: T3, Glucose-dependent insulinotropic receptor (Mus musculus, UniProt Q7TQP3); assay: Agonist activity at mouse GPR119 by cAMP assay; format: functional
T3 sequence (Q7TQP3 whole entry): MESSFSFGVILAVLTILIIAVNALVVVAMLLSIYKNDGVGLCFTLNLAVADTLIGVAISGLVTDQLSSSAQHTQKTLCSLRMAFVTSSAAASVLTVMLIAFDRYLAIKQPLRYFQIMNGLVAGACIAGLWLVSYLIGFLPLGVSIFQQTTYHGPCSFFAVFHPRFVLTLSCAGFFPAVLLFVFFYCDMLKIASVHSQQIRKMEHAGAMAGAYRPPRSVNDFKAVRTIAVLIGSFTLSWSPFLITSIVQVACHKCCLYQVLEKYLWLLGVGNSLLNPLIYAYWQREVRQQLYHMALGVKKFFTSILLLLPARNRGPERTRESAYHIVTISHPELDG

[4] = biological target: T4, Glucose-dependent insulinotropic receptor (Mus musculus) (UniProt Q7TQP3); assay: Agonist activity at mouse GPR119 by cAMP assay relative to control; format: functional; parameters: concentration or dose not given beside the values
T4 sequence (whole entry): T3 sequence (Q7TQP3 whole entry)

[5] = Kinetic solubility in FaSSIF at pH 6.5; format: physicochemical; conditions: for solubility kinetic: FaSSIF, read-out: Kinetic_solubility
[6] = Lipophilicity, logD of the compound at pH 7 by HPLC method; format: physicochemical; conditions: buffer
[7] = (§1) Half life in Wistar Han rat at 0.5 mg/kg, iv LC-MS/MS method; format: ADME, organism-based; conditions: Wistar Han, in vivo
[8] = Intrinsic clearance in rat liver microsomes; format: ADME; conditions: read-out: CLH
Rattus norvegicus [9] = assay: as §1; format: ADME, organism-based; conditions: in vivo
Rattus norvegicus [10] = assay: Volume of distribution in Wistar Han rat at 0.5 mg/kg, iv LC-MS/MS method; format: ADME, organism-based; conditions: in vivo
[11] = Fraction unbound in rat plasma; format: ADME, cell-free
Rattus norvegicus [12] = assay: Unbound volume of distribution in Wistar Han rat at 0.5 mg/kg, iv LC-MS/MS method; format: ADME, organism-based; conditions: in vivo

| SMILES | EC50 [1] [nM] | Activity [2] [%] | EC50 [3] [nM] | Activity [4] [%] | solubility kinetic [5] [µM] | logD [6] | half-life [7] [min] | Kinetic_solubility ([5]; simulated gi fluid) [µM] | CLint scaled [8] [mL/min/kg] | t1/2 (Rattus norvegicus [9]) [h] | Vd (Rattus norvegicus [10]) [L/kg] | fraction unbound [11] | Vdu (Rattus norvegicus [12]) [L/kg] |
| --- | --- | --- | --- | --- | --- | --- | --- | --- | --- | --- | --- | --- | --- |
| CCS(=O)(=O)c1ccc(COC[C@@H]2C[C@@H]2C2CCN(c3ncc(COC)cn3)CC2)c(F)c1 | 7.1 | 58 | 12.5 | 87 | 129 (≈ 61.6 µg/mL) | 3.8 | 126 |  |  |  |  |  |  |
| COC(C)c1cnc(N2CCC([C@H]3C[C@H]3COCc3ccc(S(C)(=O)=O)cc3F)CC2)nc1 (stereo in doubt; 30) |  | 95 |  | 70 |  |  |  |  |  |  |  |  |  |
| CC1(OC(=O)N2CCC([C@H]3C[C@H]3COCc3ccc(-n4cnnn4)cc3F)CC2)CC1 | 4.8 | 121 | 15 | 108 | 127 (≈ 54.5 µg/mL) | 3.8 | 60 |  |  |  |  |  |  |
| COC(C)c1cnc(N2CCC([C@H]3C[C@H]3COCc3ccc(S(C)(=O)=O)cc3F)CC2)nc1 (stereo in doubt; 29) [listing 2 of 2 here] |  | 87 |  | 109 |  |  |  |  |  |  |  |  |  |
| COCc1cnc(N2CCC([C@H]3C[C@H]3COCc3ccc(CC(=O)N4CCOCC4)cc3F)CC2)nc1 | 3.2 | 104 | 3.7 | 99 | 172 (≈ 88.2 µg/mL) | 3.4 | 24 |  |  |  |  |  |  |

The remaining compounds from weak to strong by EC50 [1], led by results:

| EC50 [1] [nM] | Activity [2] [%] | EC50 [3] [nM] | Activity [4] [%] | solubility kinetic [5] [µM] | logD [6] | half-life [7] [min] | Kinetic_solubility ([5]; simulated gi fluid) [µM] | CLint scaled [8] [mL/min/kg] | t1/2 (Rattus norvegicus [9]) [h] | Vd (Rattus norvegicus [10]) [L/kg] | fraction unbound [11] | Vdu (Rattus norvegicus [12]) [L/kg] | SMILES |
| --- | --- | --- | --- | --- | --- | --- | --- | --- | --- | --- | --- | --- | --- |
| 3.1 |  | 8.9 |  |  |  | 84 | 143 |  |  |  |  |  | COC(C)c1cnc(N2CCC([C@H]3C[C@H]3COCc3ccc(S(C)(=O)=O)cc3F)CC2)nc1 (stereo in doubt; 29) [listing 1 of 2 here] |
| 2.5 | 98 | 5.5 | 115 | 140 (≈ 62.7 µg/mL) | 4.3 | 60 |  |  |  |  |  |  | CCc1cnc(N2CCC([C@H]3C[C@H]3COCc3ccc(S(C)(=O)=O)c(F)c3)CC2)nc1 |
| 2.4 | 85 | 4.5 | 131 | 92 (≈ 40.3 µg/mL) | 4.2 | 90 |  |  |  |  |  |  | CS(=O)(=O)c1ccc(COC[C@@H]2C[C@@H]2C2CCN(c3ncc(F)cn3)CC2)cc1F |
| 2.3 | 68 | 1.7 | 121 | 83 (≈ 40.2 µg/mL) | 4.8 | 54 |  |  |  |  |  |  | O=S(=O)(CCO)c1ccc(COC[C@@H]2C[C@@H]2C2CCN(c3ncc(Cl)cn3)CC2)c(F)c1 |
| 1.7 | 69 |  |  | 61 (≈ 28.4 µg/mL) | 4.2 |  |  | 675 | 6.5 | 4.8 | 0.02 | 242 | CCS(=O)(=O)c1ccc(OCC[C@@H]2C[C@@H]2C2CCN(c3nc(C(C)C)no3)CC2)c(F)c1 |
| 1.1 | 84 | 3.8 | 75 | 133 (≈ 60.3 µg/mL) | 3.7 | 180 |  |  |  |  |  |  | COCc1cnc(N2CCC([C@H]3C[C@H]3COCc3ccc(-n4cnnn4)c(F)c3)CC2)nc1 |
